Results: ChEMBL document CHEMBL3045882, “Synthesis and biological activity evaluation of novel β-substituted nitromethylene neonicotinoid analogues” (2012)

Tests used:
Aphis craccivora [1] = experiment: Insecticidal activity against Aphis craccivora (cowpea aphid) infected soybean tender shoots assessed as mortality at 500 mg/L after 24 hr; type: functional
Aphis craccivora [2] = experiment: Insecticidal activity against Aphis craccivora (cowpea aphid) infected soybean tender shoots after 24 hr; type: functional

SMILES	mortality at 500 µg/mL (Aphis craccivora [1])	LC50 (Aphis craccivora [2])
Cn1c(NCc2ccc(Cl)nc2)c([N+](=O)[O-])sc1=N	100%	118 µM
N=c1sc([N+](=O)[O-])c2n1CCN2Cc1ccc(Cl)nc1	100%	26.8 µM
N#CS/C(=C1\NCCN1Cc1ccc(Cl)nc1)[N+](=O)[O-]	100%	15.7 µM
N#CS/C(C#N)=C1\NCCN1Cc1cnc(Cl)s1	0%	–
N#CS/C(=C1\NCCN1Cc1cnc(Cl)s1)[N+](=O)[O-]	100%	9.74 µM
N=c1sc([N+](=O)[O-])c2n1CCCN2Cc1ccc(Cl)nc1	100%	22 µM
N#CS/C(=C1\Nc2ccccc2N1Cc1ccc(Cl)nc1)[N+](=O)[O-]	87.8%	–
N#CS/C(=C1\NCCN1Cc1ccccc1)[N+](=O)[O-]	24%	–
N#Cc1sc(=N)n2c1N(Cc1ccc(Cl)nc1)CC2	32.4%	–
CCn1c(NCc2ccc(Cl)nc2)c([N+](=O)[O-])sc1=N	50.8%	–
N#CS/C(=C1\NCCN1Cc1ccc(C(F)(F)F)nc1)[N+](=O)[O-]	100%	18.9 µM
N=c1sc([N+](=O)[O-])c2n1CCN2Cc1ccccc1	16.2%	–
N=c1sc([N+](=O)[O-])c2n1CCN2Cc1cnc(Cl)s1	100%	17.8 µM
N=c1sc([N+](=O)[O-])c2n1CCN2Cc1ccc(C(F)(F)F)nc1	100%	24.5 µM
N#CS/C(=C1\NCCCN1Cc1ccc(Cl)nc1)[N+](=O)[O-]	100%	24.9 µM
N#CS/C(C#N)=C1\NCCN1Cc1ccc(Cl)nc1	34.6%	–
CCN(Cc1ccc(Cl)nc1)c1c([N+](=O)[O-])sc(=N)n1C	57.6%	–
